Details: brain imaging

- ability to cross the BBB, dye injected alone: could not on its own cross the BBB
Compound: C[N+]1=C(C=CC=CC=C2N(CCCCCC(=O)ON3C(=O)CCC3=O)c3ccc4ccccc4c3C2(C)C)C(C)(C)c2c1ccc1ccccc21.[Cl-] [Cy5 dye, Cyanine5.5 NHS ester dye]

From paper PMC5651374 (Alzheimer's & Dementia : Translational Research & Clinical …, 2016)
